# Data as given in US20140073651A1, “BENZAMIDE DERIVATIVES AS P2X7 RECEPTOR ANTAGONISTS” (Actelion Pharmaceuticals Ltd., priority 2011, published 2014).
# Molecular target: T1, human recombinant P2X7 receptor (Homo sapiens, UniProt Q99572)
# T1 construct: expressed in transfected cells
# T1 sequence (Q99572 1-595): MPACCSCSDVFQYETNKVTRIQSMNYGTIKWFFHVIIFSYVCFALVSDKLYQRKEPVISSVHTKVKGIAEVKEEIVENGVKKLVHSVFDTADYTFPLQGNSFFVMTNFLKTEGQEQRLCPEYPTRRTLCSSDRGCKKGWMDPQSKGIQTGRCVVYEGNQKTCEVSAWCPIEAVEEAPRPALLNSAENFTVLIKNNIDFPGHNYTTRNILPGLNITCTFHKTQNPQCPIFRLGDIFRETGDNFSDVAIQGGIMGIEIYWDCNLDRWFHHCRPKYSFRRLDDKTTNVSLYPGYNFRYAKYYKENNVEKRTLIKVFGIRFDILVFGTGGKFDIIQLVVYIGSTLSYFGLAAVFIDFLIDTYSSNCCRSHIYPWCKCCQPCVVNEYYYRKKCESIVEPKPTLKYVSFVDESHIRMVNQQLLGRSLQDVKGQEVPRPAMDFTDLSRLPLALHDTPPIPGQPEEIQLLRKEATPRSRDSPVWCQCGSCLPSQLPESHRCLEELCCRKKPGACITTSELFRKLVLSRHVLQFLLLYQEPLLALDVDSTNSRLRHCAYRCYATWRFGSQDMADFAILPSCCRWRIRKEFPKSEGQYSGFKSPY
# Experiment: YO-PRO assay (YO-PRO-1 uptake) in HEK cells stably expressing P2X7
# Format: cell-based
# Details: HEK-293 cells expressing human recombinant P2X7 receptor; ATP 250 μM, 90 minutes; YO-PRO-1 fluorescence (FLIPR tetra); read-out: IC50 (antagonistic activity with respect to the P2X7 receptor)
# Method: Cell line generation was performed in general according to established molecular cloning protocols. Specifically, RNA was extracted from human whole blood using the Qiagen RNeasy kit (Qiagen, CH) according to the manufacturer's instructions. Subsequently cDNA was made (Superscript II, Invitrogen AG, CH) and the human P2X7 gene (genbank ref. BC011913) was amplified with the following primers: [NT] and [NT] The amplified sequence was subsequently ligated into a pcDNA3.1 (+) NotI, NheI digested plasmid. […] Following a 24 h exposure to DNA, cells were trypsinized and re-seeded at low density in the presence of 250 μg Geneticin. Geneticin resistant cells were then selected during two consecutive rounds of cloning by serial limiting dilution with visual inspection. Individual clones were screened for P2X7 expression by applying ATP and recording the resultant uptake of YO-[…]. Specific cell clones were chosen based on RNA and protein expression. HEK cells stably expressing P2X7 were used to screen drugs using the YO-[…] assay. Cells were grown to confluency in adherent culture at 37° C. in a humidified 5% CO2 incubator (split 1/5 every 3-4 days with DMEM, 10% FCS, 1% Penicillin/Streptomycin, 250 μg/ml Geneticin). Adherent cells were detached by incubation with Trypsine (1 ml per 165 cm^2 dish) for 2 minutes, then washed off with 10 ml PBS (without Mg^2+ and Ca^2+), and resuspended in DMEM, 10% FCS, 1% Penicillin/Streptomycin, no Geneticin. 10'000 cells per well (48 hours before the assay) or 25'000 cells per well (Vi-cell XR (Beckman Coulter) (24 hours before the assay) in 50 μl full medium were seeded on 384-well black-wall, clear bottom plates, that were coated before with 10 μl per well Poly-L-Lysine, incubated for 30-60 minutes at 37° C. and washed once with PBS. Medium was removed from cells and 50 μl of assay buffer containing 0.5 μM YO-[…] was added into the wells. Solutions of antagonist compounds were prepared by serial dilutions of a 10 mM DMSO solution of the antagonist into PBS using a BioMek (Beckman Coulter). Each concentration was performed in duplicate. […] During this time period, four time points were taken. Each time point comprised the average of several measurements made within a few seconds. […] The FLIPR tetra was equipped with Molecular Devices Screen Works system control software to define and run experimental protocols. […] For IC50 measurements the maximum intensity is plotted against the concentration of compound to determine IC50 values.
row,SMILES,IC50 [nM]
1,"CN(c1ccc(Cl)c(C(=O)NCC2(C(N)=O)CCCCC2)c1)c1ccnc(Cl)n1 [Example 53, N-(1-Carbamoyl-cyclohexylmethyl)-2-chloro-5-[(2-chloro-pyrimidin-4-yl)-methyl-amino]-benzamide]",576
2,"CSc1ccnc(Nc2ccc(Cl)c(C(=O)NCC3(O)CCCCC3)c2)n1 [Example 72, 2-Chloro-N-(1-hydroxy-cyclohexylmethyl)-5-(4-methylsulfanyl-pyrimidin-2-ylamino)-benzamide]",1460
3,"CCN(c1ccc(Cl)c(C(=O)NCC2(O)CCCCC2)c1)c1ccnc(Cl)n1 [Example 20, 2-Chloro-5-[(2-chloro-pyrimidin-4-yl)-ethyl-amino]-N-(1-hydroxy-cyclohexylmethyl)-benzamide]",228
4,"CC(C)N(c1ccc(Cl)c(C(=O)NCC2(O)CCCCC2)c1)c1ccnc(Cl)n1 [Example 24, 2-Chloro-5-[(2-chloro-pyrimidin-4-yl)-isopropyl-amino]-N-(1-hydroxy-cyclohexylmethyl)-benzamide]",236
5,"CN(c1ccc(Cl)c(C(=O)NCC2(O)CCCCC2)c1)c1ccccn1 [Example 93, 2-Chloro-N-(1-hydroxy-cyclohexylmethyl)-5-(methyl-pyridin-2-yl-amino)-benzamide]",111
6,"O=C(NCC1(O)CCCCC1)c1cc(Cc2cc[nH]c(=O)n2)ccc1Cl [Example 147, 2-Chloro-N-(1-hydroxy-cyclohexylmethyl)-5-(2-oxo-1,2-dihydro-pyrimidin-4-ylmethyl)-benzamide]",123
7,"O=C(NCC1(O)CCCCC1)c1cc(Oc2cncc(=O)[nH]2)ccc1Cl [Example 126, 2-Chloro-N-(1-hydroxy-cyclohexylmethyl)-5-(6-oxo-1,6-dihydro-pyrazin-2-yloxy)-benzamide]",461
8,"CN(c1ccc(Cl)c(C(=O)NCC2(O)CCCCC2)c1)c1cnc(Cl)cn1 [Example 87, 2-Chloro-5-[(5-chloro-pyrazin-2-yl)-methyl-amino]-N-(1-hydroxy-cyclohexylmethyl)-benzamide]",190
9,"CN(c1ccc(Cl)c(C(=O)NCC2(O)CCCCC2)c1)c1cccc(=O)[nH]1 [Example 95, 2-Chloro-N-(1-hydroxy-cyclohexylmethyl)-5-[methyl-(6-oxo-1,6-dihydro-pyridin-2-yl)-amino]-benzamide]",351
10,"O=C(NCC1(O)CCCCC1)c1cc(Nc2ccccn2)ccc1Cl [Example 92, 2-Chloro-N-(1-hydroxy-cyclohexylmethyl)-5-(pyridin-2-ylamino)-benzamide]",82
11,"CN(c1ccc(Cl)c(C(=O)NCC2(CO)CCCCC2)c1)c1ccnc(=O)[nH]1 [Example 56, 2-Chloro-N-(1-hydroxymethyl-cyclohexylmethyl)-5-[methyl-(2-oxo-2,3-dihydro-pyrimidin-4-yl)-amino]-benzamide]",74
12,"COc1cnnc(Oc2ccc(Cl)c(C(=O)NCC3(O)CCCCC3)c2)c1 [Example 131, 2-Chloro-N-(1-hydroxy-cyclohexylmethyl)-5-(5-methoxy-pyridazin-3-yloxy)-benzamide]",206
13,"COc1ccc(Oc2ccc(Cl)c(C(=O)NCC3(O)CCCCC3)c2)nn1 [Example 128, 2-Chloro-N-(1-hydroxy-cyclohexylmethyl)-5-(6-methoxy-pyridazin-3-yloxy)-benzamide]",30
14,"O=C(NCC1(O)CCCCC1)c1cc(Cn2ccc(=O)[nH]c2=O)ccc1Cl [Example 144, 2-Chloro-5-(2,4-dioxo-3,4-dihydro-2H-pyrimidin-1-ylmethyl)-N-(1-hydroxy-cyclohexylmethyl)-benzamide]",1390
15,"COc1cccc(Oc2ccc(Cl)c(C(=O)NCC3(O)CCCCC3)c2)n1 [Example 111, 2-Chloro-N-(1-hydroxy-cyclohexylmethyl)-5-(6-methoxy-pyridin-2-yloxy)-benzamide]",21
16,"CN(c1ccc(Cl)c(C(=O)NCC2(O)CCCCC2)c1)c1ccnc(Cl)n1 [Example 11, 2-Chloro-5-[(2-chloro-pyrimidin-4-yl)-methyl-amino]-N-(1-hydroxy-cyclohexylmethyl)-benzamide]",184
17,"O=C(NCC1(O)CCCCC1)c1cc(N(CC2CCCC2)c2cc[nH]c(=O)n2)ccc1Cl [Example 36, 2-Chloro-5-[cyclopentylmethyl-(2-oxo-1,2-dihydro-pyrimidin-4-yl)-amino]-N-(1-hydroxy-cyclohexylmethyl)-benzamide]",185
18,"COCCN(c1ccc(Cl)c(C(=O)NCC2(O)CCCCC2)c1)c1cc[nH]c(=O)n1 [Example 33, 2-Chloro-N-(1-hydroxy-cyclohexylmethyl)-5-[(2-methoxy-ethyl)-(2-oxo-1,2-dihydro-pyrimidin-4-yl)-amino]-benzamide]",183
19,"O=C(NCC1(O)CCCCC1)c1cc(Oc2ccc(Cl)nn2)ccc1Cl [Example 127, 2-Chloro-5-(6-chloro-pyridazin-3-yloxy)-N-(1-hydroxy-cyclohexylmethyl)-benzamide]",58
20,"COc1nc(Cl)cc(N(C)c2ccc(Cl)c(C(=O)NCC3(O)CCCCC3)c2)n1 [Example 63, 2-Chloro-5-[(6-chloro-2-methoxy-pyrimidin-4-yl)-methyl-amino]-N-(1-hydroxy-cyclohexylmethyl)-benzamide]",307
21,"CN(c1ccc(Cl)c(C(=O)NCC2(O)CCC(F)(F)CC2)c1)c1ccnc(Cl)n1 [Example 57, 2-Chloro-5-[(2-chloro-pyrimidin-4-yl)-methyl-amino]-N-(4,4-difluoro-1-hydroxy-cyclohexylmethyl)-benzamide]",214
22,"O=C(NCC1(O)CCCCC1)c1cc(Oc2ccnc(=O)[nH]2)ccc1Cl [Example 119, 2-Chloro-N-(1-hydroxy-cyclohexylmethyl)-5-(2-oxo-2,3-dihydro-pyrimidin-4-yloxy)-benzamide]",796
23,"CN(c1ccc(Cl)c(C(=O)NCC2(O)CCCCCCC2)c1)c1ccnc(Cl)n1 [Example 47, 2-Chloro-5-[(2-chloro-pyrimidin-4-yl)-methyl-amino]-N-(1-hydroxy-cyclooctylmethyl)-benzamide]",116
24,"O=C(NCC1(O)CCCCC1)c1cc(Nc2cccc(=O)[nH]2)ccc1Cl [Example 94, 2-Chloro-N-(1-hydroxy-cyclohexylmethyl)-5-(6-oxo-1,6-dihydro-pyridin-2-ylamino)-benzamide]",160
25,"O=C(NCC1(O)CCCCC1)c1cc(N(Cc2ccccc2)c2ccnc(Cl)n2)ccc1Cl [Example 29, 5-[Benzyl-(2-chloro-pyrimidin-4-yl)-amino]-2-chloro-N-(1-hydroxy-cyclohexylmethyl)-benzamide]",456
26,"COc1nccc(Nc2ccc(Cl)c(C(=O)NCC3(O)CCCCC3)c2)n1 [Example 12, 2-Chloro-N-(1-hydroxy-cyclohexylmethyl)-5-(2-methoxy-pyrimidin-4-ylamino)-benzamide]",733
27,"COc1cncc(N(C)c2ccc(Cl)c(C(=O)NCC3(O)CCCCC3)c2)n1 [Example 82, 2-Chloro-N-(1-hydroxy-cyclohexylmethyl)-5-[(6-methoxy-pyrazin-2-yl)-methyl-amino]-benzamide]",76
28,"CN(c1ccc(Cl)c(C(=O)NCC2(O)CCCC2)c1)c1ccnc(Cl)n1 [Example 49, 2-Chloro-5-[(2-chloro-pyrimidin-4-yl)-methyl-amino]-N-(1-hydroxy-cyclopentylmethyl)-benzamide]",1120
29,"O=C(NCC1(O)CCCCC1)c1cc(Oc2cccc(Cl)n2)ccc1Cl [Example 108, 2-Chloro-5-(6-chloro-pyridin-2-yloxy)-N-(1-hydroxy-cyclohexylmethyl)-benzamide]",64
